# Measurements published in ChEMBL document CHEMBL5104232, “Pyrazolines as potential anti-Alzheimer's agents: DFT, molecular docking, enzyme inhibition and pharmacokinetic studies” (RSC Med Chem, 2022).
# Legend:
# [1] = Apparent permeability of compound across gastrointestinal tract mimic in PBS buffer as membrane retention incubated for 5 hrs by PAMPA assay based HPLC analysis; assay type: ADME
# [2] = Apparent permeability of compound across gastrointestinal tract mimic in PBS buffer incubated for 5 hrs by PAMPA assay based HPLC analysis; assay type: ADME
# [3] = biological target: Acetylcholinesterase (Homo sapiens, UniProt P22303)
# Sequence of Acetylcholinesterase (P22303 whole entry): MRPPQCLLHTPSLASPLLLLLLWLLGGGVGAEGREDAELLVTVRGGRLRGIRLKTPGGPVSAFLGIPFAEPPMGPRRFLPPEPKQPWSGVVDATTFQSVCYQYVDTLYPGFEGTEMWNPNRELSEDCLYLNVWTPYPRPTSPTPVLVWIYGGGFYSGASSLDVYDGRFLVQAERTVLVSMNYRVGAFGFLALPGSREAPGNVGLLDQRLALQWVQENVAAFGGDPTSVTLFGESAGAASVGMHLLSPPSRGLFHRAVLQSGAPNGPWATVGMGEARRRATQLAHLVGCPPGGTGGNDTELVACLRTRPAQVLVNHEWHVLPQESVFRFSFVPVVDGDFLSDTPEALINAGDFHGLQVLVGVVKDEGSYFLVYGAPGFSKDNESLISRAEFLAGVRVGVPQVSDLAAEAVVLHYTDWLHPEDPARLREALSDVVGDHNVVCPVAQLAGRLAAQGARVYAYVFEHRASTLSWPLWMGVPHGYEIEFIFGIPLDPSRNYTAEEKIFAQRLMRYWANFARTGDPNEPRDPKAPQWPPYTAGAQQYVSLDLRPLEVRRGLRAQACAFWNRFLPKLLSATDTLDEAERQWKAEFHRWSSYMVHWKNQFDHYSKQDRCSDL
# Description: Inhibition of human acetylcholinesterase using acetylthiocholine iodide as substrate incubated for 15 mins by Ellman's method
smiles,measurement,setting,value
CC(=O)N1N=C(c2ccc(C)cc2)CC1c1ccc(-c2ccccc2)cc1 (centres undefined),Activity,[1],44.3%
same,Papp at 5 h,[2],42.7 nm/s
same,IC50,[3],0.845 µM
COc1ccc(OC)c(C2CC(c3ccc(-c4ccccc4)cc3)=NN2C(C)=O)c1 (centres undefined),Activity,[1],38.3%
same,Papp at 5 h,[2],69.4 nm/s
same,IC50,[3],1420 µM
COc1ccc(OC)c(C2=NN(C(C)=O)C(c3ccc(-c4ccccc4)cc3)C2)c1 (centres undefined),Activity,[1],36.2%
same,Papp at 5 h,[2],68.7 nm/s
same,IC50,[3],1700 µM
CC(=O)N1N=C(c2ccc3ccccc3c2)CC1c1ccc(-c2ccccc2)cc1 (centres undefined),Activity,[1],56.9%
same,Papp at 5 h,[2],44.3 nm/s
same,IC50,[3],0.068 µM
CC(=O)N1N=C(c2ccc(-c3ccccc3)cc2)CC1c1cccc([N+](=O)[O-])c1 (centres undefined),Activity,[1],27.7%
same,Papp at 5 h,[2],94.2 nm/s
same,IC50,[3],1030 µM
CC(=O)N1N=C(c2ccc(-c3ccccc3)cc2)CC1c1ccccc1[N+](=O)[O-] (centres undefined),Activity,[1],47.6%
same,Papp at 5 h,[2],69 nm/s
same,IC50,[3],0.64 µM
CC(=O)N1N=C(c2ccc(-c3ccccc3)cc2)CC1c1ccc2ccccc2c1 (centres undefined),Activity,[1],59.7%
same,Papp at 5 h,[2],33.6 nm/s
same,IC50,[3],0.799 µM
CC(=O)N1N=C(c2ccc(-c3ccccc3)cc2)CC1c1ccc(C(=O)O)cc1 (centres undefined),Activity,[1],15%
same,Papp at 5 h,[2],21.3 nm/s
same,IC50,[3],1540 µM
COc1ccc(C2CC(c3ccc(-c4ccccc4)cc3)=NN2C(C)=O)cc1OC (centres undefined),Activity,[1],9.2%
same,Papp at 5 h,[2],90.2 nm/s
same,IC50,[3],1430 µM
COc1cc(C2=NN(C(C)=O)C(c3ccc(-c4ccccc4)cc3)C2)cc(OC)c1OC (centres undefined),Activity,[1],9.5%
same,Papp at 5 h,[2],78.9 nm/s
same,IC50,[3],1950 µM
CC(=O)N1N=C(c2ccc(Br)cc2)CC1c1ccc(-c2ccccc2)cc1 (centres undefined),Activity,[1],49%
same,Papp at 5 h,[2],49 nm/s
same,IC50,[3],0.903 µM
CC(=O)N1N=C(c2ccc(-c3ccccc3)cc2)CC1c1ccc([N+](=O)[O-])cc1 (centres undefined),Activity,[1],32.6%
same,Papp at 5 h,[2],78.5 nm/s
same,IC50,[3],1560 µM
CC(=O)N1N=C(c2ccc3c(c2)OCO3)CC1c1ccc(-c2ccccc2)cc1 (centres undefined),Activity,[1],17%
same,Papp at 5 h,[2],84.4 nm/s
same,IC50,[3],0.913 µM
CC(=O)N1N=C(c2ccc(-c3ccccc3)cc2)CC1c1ccc2c(c1)OCO2 (centres undefined),Activity,[1],33.7%
same,Papp at 5 h,[2],87.5 nm/s
same,IC50,[3],0.988 µM
CC(=O)N1N=C(c2ccccc2[N+](=O)[O-])CC1c1ccc(-c2ccccc2)cc1 (centres undefined),Activity,[1],6.6%
same,Papp at 5 h,[2],12.2 nm/s
same,IC50,[3],0.052 µM
CC(=O)N1N=C(c2ccc(-c3ccccc3)cc2)CC1c1ccccc1 (centres undefined),Activity,[1],30.7%
same,Papp at 5 h,[2],91.5 nm/s
same,IC50,[3],1330 µM
COc1ccc(C2=NN(C(C)=O)C(c3ccc(-c4ccccc4)cc3)C2)c(OC)c1 (centres undefined),Activity,[1],18.4%
same,Papp at 5 h,[2],10 nm/s
same,IC50,[3],1130 µM
CC(=O)N1N=C(c2cccc3ccccc23)CC1c1ccc(-c2ccccc2)cc1 (centres undefined),Activity,[1],35.8%
same,Papp at 5 h,[2],54.7 nm/s
same,IC50,[3],1010 µM
